Ends that are not written are not given here.

Data set [1] has as its system E. coli AB94012. In words: LTA and LPS competition binding assay (MIC). In kind it is cell-based. Particulars: controls of the competition assay (Figure 7C): untreated peptide, or LTA / LPS alone. How it is done: To confirm the results of the BLI titrations, 250 µg/mL of Kn2-7 or BmKn2 was mixed with an equal volume of 1 mg/mL LTA or LPS. Then, the MICs of Kn2-7 or BmKn2 mixed with LTA against S. aureus and E. coli were measured. […] The MICs of Kn2-7 and BmKn2 treated with LTA against S. aureus were 25 and 12.5 µg/mL, respectively.
A total of 250 µg/mL of each peptide solution was mixed with an equal volume of 1 mg/mL of the LTA or LPS solution. Then, the MICs of BmKn2 and Kn2-7 treated with LTA or LPS against S. aureus AB94004 and E. coli AB94012 were measured.

For data set [2], the system named is S. aureus. In words: S. aureus mouse skin abrasion and infection model. It is filed as in vivo, mouse (BALB/c). How it is done:
Female BALB/c mice weighing 18–20 g were purchased from the Hubei Research Center of Laboratory Animals. All animal studies were approved by the Institutional Animal Care and Use Committee of Wuhan University.
Kn2-7 or BmKn2 was prepared in gel form in 0.5% hydroxypropylcellulose to a final concentration of 5 mg/mL.
Mice were injected with 150 mg/kg of cyclophosphamide 4 days prior to infection. Subsequently, the mice were injected with 100 mg/kg of cyclophosphamide 1 day prior to infection. After being anesthetized, the dorsal skin of the mice was shaved, and abrasions were produced in a 1×1 cm^2 area using a blade. These abrasion wounds damaged only the stratum corneum and upper layer of the epidermis, but not the dermis. Five minutes later, the wounds were inoculated with 20 µl of S. aureus (10^7–10^8 CFUs) using a micropipettor. A group of mice was killed 4 h after infection to control for the infectious dose. Four hours after infection, the wounds of the other mice were smeared with 20 µl of 5 mg/mL gel or a placebo gel, which was used as a negative control. The treatment lasted for 4 days, with two peptide gel applications being performed daily (morning and evening at 8 h intervals). After 4 days of treatment, the mice were killed, and the wound area of the skin was immediately excised and homogenized. Suitable dilutions of the homogenates were plated on LB plates to determine the number of living bacteria (CFUs).
After the animals were euthanized, biopsy specimens of the excised wound area of the skin were collected and immediately fixed in phosphate-buffered formalin (10%, pH = 7.4). Then, the biopsy specimens were embedded in paraffin and stained with hematoxylin and eosin.
In each experiment, the mean CFU was calculated using log10-transformed data. Based on the averages of three experiments, the mean, range, and coefficient of variation were calculated.

Data set [3] deals with E. coli ATCC 25922. In words: MIC, broth microdilution (CLSI). In kind it is cell-based. Particulars: E. coli ATCC 25922, Gram-negative, 96-well. The method, then:
(§1) S. aureus AB94004, S. aureus ATCC 25923, E. coli AB94012, E. coli ATCC 25922, Pseudomonas aeruginosa AB93066, Bacillus thuringiensis AB92037, Bacillus subtilis AB91021, and Micrococcus luteus AB93113 were purchased from the China Center of Type Culture Collection (CCTCC).
(§2) The MIC was determined via a microdilution assay in 96-well microtiter plates according to the broth microdilution guideline of Clinical and Laboratory Standards Institute (CLSI).
(In general: In broth dilution the organism is exposed to a series of concentrations in liquid medium.)

The subject of data set [4] is S. aureus ATCC 25923. In words: MIC, broth microdilution (CLSI). In kind it is cell-based. Particulars: S. aureus ATCC 25923, Gram-positive, 96-well. How it is done: as §1, §2
The test system of data set [5] is P. aeruginosa AB93066. In words: MIC, broth microdilution (CLSI). Particulars: P. aeruginosa AB93066, Gram-negative, 96-well. In kind it is cell-based, Pseudomonas aeruginosa. The method, then:
as §1, §2

The test system of data set [6] is methicillin-resistant S. aureus (MRSA) P1374. In words: microbe, parasite or virus in culture. In kind it is cell-based. The settings on record: P1374, methicillin resistant (MRSA) clinical isolate; repeated at least three times. The method, then: (§3) Clinical isolates were obtained from the 302nd military hospital of Beijing, China, including penicillin-resistant S. aureus (PRSA) P1383, penicillin-resistant S. epidermidis (PRSE) P1389, methicillin-resistant S. aureus (MRSA) P1381, P1386 and P1374, methicillin-resistant coagulase-negative Staphylococcus (MRCNS) P1369, and penicillin-sensitive S. epidermidis (PSSE) P1111.
as §2

In data set [7] the test system is methicillin-resistant S. aureus (MRSA) P1381. In words: microbe, parasite or virus in culture. In kind it is cell-based. The settings on record: P1381, methicillin resistant (MRSA) clinical isolate; repeated at least three times. The method, then:
as §3, §2

The subject of data set [8] is methicillin-resistant S. aureus (MRSA) P1386. In words: microbe, parasite or virus in culture. In kind it is cell-based. Particulars: P1386, methicillin resistant (MRSA) clinical isolate; repeated at least three times. How it is done:
as §3, §2

Data set [9] has as its system penicillin-resistant S. aureus (PRSA) P1383. In words: microbe, parasite or virus in culture. In kind it is cell-based. The settings on record: P1383, penicillin resistant (PRSA) clinical isolate; repeated at least three times. The method, then: as §3, §2
Data set [10] concerns penicillin-resistant S. epidermidis (PRSE) P1389. In words: microbe, parasite or virus in culture. The settings on record: P1389, penicillin resistant (PRSE) clinical isolate; repeated at least three times. It is filed as cell-based. The method, then: as §3, §2
The subject of data set [11] is penicillin-sensitive S. epidermidis (PSSE) P1111. In words: microbe, parasite or virus in culture. It is filed as cell-based. Particulars: P1111, penicillin sensitive (PSSE) clinical isolate; repeated at least three times. The method, then: as §3, §2
Data set [12] concerns human red blood cells. In words: Hemolytic activity. It is filed as cell-based. The settings on record: 37 °C, 1 h, absorbance at 570 nm, positive control 0.1% Triton X-100, method of Käber modified by Achmarine. The method, then:
Figure 1 Screening, antimicrobial and hemolytic activities of Kn2-7 in vitro. (A) Multiple alignments of Kn2-7 and its seven derivatives. (B) Predicted secondary structure of Kn2-7 and its seven derivatives. (C) Antibacterial activity screening of Kn2-7 and its seven derivative peptides. (D) Hemolytic activity of Kn2-7. The hemolytic activities of the Kn2-7 and BmKn2 peptides were estimated by monitoring the increase in the absorbance at 570 nm after incubating human red blood cells with different peptide concentrations at 37 °C for 1 h. The positive control was 0.1% Triton X-100, and 0.85% saline was used as a blank. […] It is read as >100 for BmKn2, Kn2-3 and Kn2-4, and as 100 for Kn2-1, Kn2-2, Kn2-5 and Kn2-6.
The hemolytic activities of Kn2-7 and BmKn2 peptides were tested against human red blood cells. HC50 values were obtained according to the method of Käber, modified by Achmarine. Saline solution at a concentration of 0.85% was used as the negative control, and 0.1% Triton X-100 was used as the positive control.

As for FIKRIARLLRKIF [Kn2-7], the “MIC E.coli, substance alone” value in data set [1] is given as 6.25 µg/mL. The “Cutaneous viable counts (colony counts) of S. aureus” value in data set [2] (female BALB/c mice, cyclophosphamide-pretreated, skin abrasion, 10^7–10^8 CFUs, topical 20 µl of 5 mg/mL gel (0.5% hydroxypropylcellulose) twice daily for 4 days, eight mice per group, versus placebo-treated and untreated mice) is “clearly lower”. Moreover, the “Histological morphology of the skin sections, four days after infection” value in [2] (hematoxylin and eosin, topical 5 mg/mL gel twice daily for 4 days, untreated and placebo groups lost nearly all epidermis) was “recovered almost fully”. Further, in [2] (topical 5 mg/mL gel twice daily for 4 days, placebo blisters became larger), the “Appearance of the infected skin, four days after infection” value is “healed”. Also, in data set [2] (topical 5 mg/mL gel twice daily, placebo skin wet with blistering), the “Appearance of the infected skin, one day after infection” value is given as “scabbed over”.
Take FIGAIARLLSKIF-NH2 [BmKn2]: the MIC is given as above 100 µg/mL in [3]; 6.25 µg/mL in data set [4]; 50 µg/mL in data set [5]; 12.5 µg/mL in data set [6]; 12.5 µg/mL in data set [7]; 12.5 µg/mL in data set [8]. Further, the MIC stood at 12.5 µg/mL in data set [9], 12.5 µg/mL in data set [10] and 6.25 µg/mL in data set [11]. In addition, the “HC50 (hemolytic activity)” value in data set [12] amounted to 17.13 µg/mL.

These data come from article PMC3390344, “Antibacterial Activity and Mechanism of a Scorpion Venom Peptide Derivative In Vitro and In Vivo” (PLoS ONE, 2012).
